Measurements published in article PMC11579512, “Deoxybouvardin-glucoside induces apoptosis in non-small cell lung cancer cells by targeting EGFR/MET and AKT signaling pathway” (EXCLI Journal, 2024).

What was measured:
Type in all cases: cell-based, human
[1] = test system: Bad; experiment: Immunoblot Bad in HCC827 and HCC827GR cells
Protocol: (§1) HaCaT cells were grown in DMEM, whereas HCC827 and HCC827GR cells were grown in RPMI 1640. All culture media were supplemented with FBS (10 %) and P/S (1 %), and the cells were grown at 37 °C in 5 % CO2.
(§2) Cells were lysed in RIPA buffer, and protein concentration was determined using a Bio-Rad DC Protein Assay kit (Bio-Rad, Hercules, CA, USA). Protein samples from the cell lysates were resolved by sodium dodecyl sulfate-polyacrylamide gel electrophoresis and then transferred onto polyvinylidene fluoride membranes. The membranes were blocked with 3 % or 5 % skim milk and then incubated at 4 °C overnight with the indicated primary antibodies, followed by the corresponding horseradish peroxidase-conjugated secondary antibodies at RT for 2 h. Protein bands were visualized using western blotting luminol reagent solution and ImageQuant LAS 500 (GE Healthcare, Uppsala, Sweden). The density of the bands was quantified using ImageJ software (NIH, Bethesda, MD, USA).

[2] = test system: HCC827GR cells; experiment: Cell cycle distribution (Muse, PI), HCC827GR; conditions: 48 h
Protocol: as §1
Cell cycle distribution analysis was performed using a Muse™ Cell Cycle Kit (MCH100106, Merck Millipore, Billerica, MA) based on propidium iodide (PI) staining. The cells were collected, fixed in 70 % ethanol overnight at -20 °C, and then stained with a Muse™ Cell Cycle Reagent at RT for 30 min in the dark. The cell cycle distribution was measured using a Muse™ Cell Analyzer (Merck Millipore).

[3] = test system: HCC827GR cells; experiment: MTT viability after NAC pretreatment, HCC827GR; conditions: for cell viability (relative to untreated = 100.00): HCC827GR
Protocol: All culture media were supplemented with FBS (10 %) and P/S (1 %), and the cells were grown at 37 °C in 5 % CO2.
The cells were treated with MTT and incubated for 2 h. The supernatants were removed, and the remaining formazan crystals were dissolved in DMSO before absorbance measurement at 570 nm using a Multiscan GO spectrophotometer (Thermo Fisher Scientific, Vantaa, Finland).

[4] = test system: caspase-3; experiment: Immunoblot caspase-3 with NAC pretreatment, HCC827 and HCC827GR cells; conditions: for caspase3 protein Ratio: control = 1.00
Protocol: as §1, §2

Q: For `COc1ccc(C[C@H]2C(=O)N[C@@H](C)C(=O)N(C)[C@H]3Cc4ccc(cc4)Oc4cc(ccc4O[C@@H]4O[C@H](CO)[C@@H](O)[C@H](O)[C@H]4O)C[C@@H](C(=O)N[C@H](C)C(=O)N[C@@H](C)C(=O)N2C)N(C)C3=O)cc1` [DBG, deoxybouvardin glucoside], which Bad protein/actin ([1]; HCC827, DBG 3 nM, DBG 0 nM 0.16) is on record?
A: The Bad protein/actin was 0.25.

Q: And the “Bad protein Ratio” value ([1]; HCC827, DBG 3 nM, relative to DBG 12 nM = 1.00, DBG 0 nM 0.19)?
A: The value was 0.31.

Q: And the Bad protein/actin ([1]; HCC827, DBG 6 nM, DBG 0 nM 0.16)?
A: The Bad protein/actin was 0.69.

Q: And the “Bad protein Ratio” value ([1]; HCC827, DBG 6 nM, relative to DBG 12 nM = 1.00, DBG 0 nM 0.19)?
A: Its value is 0.84.

Q: And the “Bad protein Ratio” value ([1]; HCC827, DBG 12 nM (reference of the ratio, 1.00), DBG 0 nM 0.19)?
A: The value was 1.00.

Q: What about the Bad protein/actin ([1]; HCC827, DBG 12 nM, DBG 0 nM 0.16) of the same molecule?
A: Its Bad protein/actin is 0.82.

Q: What about the Bad protein/actin ([1]; HCC827GR, DBG 3 nM, DBG 0 nM 0.28) of the same molecule?
A: Its Bad protein/actin is 0.22.

Q: What about the “Bad protein Ratio” value ([1]; HCC827GR, DBG 3 nM, relative to DBG 12 nM = 1.00, DBG 0 nM 0.49) of the same molecule?
A: Its value is 0.39.

Q: What about the Bad protein/actin ([1]; HCC827GR, DBG 6 nM, DBG 0 nM 0.28) of the same molecule?
A: The Bad protein/actin was 0.59.

Q: What about the “Bad protein Ratio” value ([1]; HCC827GR, DBG 6 nM, relative to DBG 12 nM = 1.00, DBG 0 nM 0.49) of the same molecule?
A: Its value is 1.03.

Q: What about the “Bad protein Ratio” value ([1]; HCC827GR, DBG 12 nM (reference of the ratio, 1.00), DBG 0 nM 0.49) of the same molecule?
A: The value was 1.00.

Q: What about the Bad protein/actin ([1]; HCC827GR, DBG 12 nM, DBG 0 nM 0.28) of the same molecule?
A: Its Bad protein/actin is 0.57.

Q: And the “level of Bad” value ([1]; NSCLC cells, DBG)?
A: The value was “increased”.

Q: And the G0/G1 distribution ([2]; DBG 3 nM, mean of 3 samples)?
A: Its G0/G1 distribution is 53.10.

Q: What about the G2/M distribution ([2]; DBG 3 nM, mean of 3 samples) of the same molecule?
A: Its G2/M distribution is 37.67.

Q: What about the S distribution ([2]; DBG 3 nM, mean of 3 samples) of the same molecule?
A: The S distribution was 9.23.

Q: And the G0/G1 distribution ([2]; DBG 3 nM, sample 1)?
A: The G0/G1 distribution was 51.80.

Q: And the G2/M distribution ([2]; DBG 3 nM, sample 1)?
A: Its G2/M distribution is 39.10.

Q: And the S distribution ([2]; DBG 3 nM, sample 1)?
A: The S distribution was 9.10.

Q: What about the G0/G1 distribution ([2]; DBG 3 nM, sample 2) of the same molecule?
A: Its G0/G1 distribution is 53.80.

Q: What about the G2/M distribution ([2]; DBG 3 nM, sample 2) of the same molecule?
A: The G2/M distribution was 36.60.

Q: What about the S distribution ([2]; DBG 3 nM, sample 2) of the same molecule?
A: Its S distribution is 9.60.

Q: And the G0/G1 distribution ([2]; DBG 3 nM, sample 3)?
A: Its G0/G1 distribution is 53.70.

Q: And the G2/M distribution ([2]; DBG 3 nM, sample 3)?
A: The G2/M distribution was 37.30.

Q: And the S distribution ([2]; DBG 3 nM, sample 3)?
A: Its S distribution is 9.00.

Q: And the G0/G1 distribution ([2]; DBG 6 nM, mean of 3 samples)?
A: The G0/G1 distribution was 54.77.

Q: And the G2/M distribution ([2]; DBG 6 nM, mean of 3 samples)?
A: Its G2/M distribution is 36.33.

Q: What about the S distribution ([2]; DBG 6 nM, mean of 3 samples) of the same molecule?
A: Its S distribution is 8.90.

Q: What about the G0/G1 distribution ([2]; DBG 6 nM, sample 1) of the same molecule?
A: The G0/G1 distribution was 54.30.

Q: What about the G2/M distribution ([2]; DBG 6 nM, sample 1) of the same molecule?
A: Its G2/M distribution is 36.50.

Q: And the S distribution ([2]; DBG 6 nM, sample 1)?
A: The S distribution was 9.20.

Q: What about the G0/G1 distribution ([2]; DBG 6 nM, sample 2) of the same molecule?
A: The G0/G1 distribution was 53.10.

Q: What about the G2/M distribution ([2]; DBG 6 nM, sample 2) of the same molecule?
A: The G2/M distribution was 37.80.

Q: What about the S distribution ([2]; DBG 6 nM, sample 2) of the same molecule?
A: Its S distribution is 9.10.

Q: And the G0/G1 distribution ([2]; DBG 6 nM, sample 3)?
A: The G0/G1 distribution was 56.90.

Q: What about the G2/M distribution ([2]; DBG 6 nM, sample 3) of the same molecule?
A: Its G2/M distribution is 34.70.

Q: And the S distribution ([2]; DBG 6 nM, sample 3)?
A: Its S distribution is 8.40.

Q: What about the G0/G1 distribution ([2]; DBG 12 nM, mean of 3 samples) of the same molecule?
A: Its G0/G1 distribution is 56.93.

Q: And the G2/M distribution ([2]; DBG 12 nM, mean of 3 samples)?
A: Its G2/M distribution is 34.27.

Q: And the S distribution ([2]; DBG 12 nM, mean of 3 samples)?
A: The S distribution was 8.77.

Q: And the G0/G1 distribution ([2]; DBG 12 nM, sample 1)?
A: The G0/G1 distribution was 57.50.

Q: And the G2/M distribution ([2]; DBG 12 nM, sample 1)?
A: The G2/M distribution was 33.40.

Q: What about the S distribution ([2]; DBG 12 nM, sample 1) of the same molecule?
A: Its S distribution is 9.00.

Q: And the G0/G1 distribution ([2]; DBG 12 nM, sample 2)?
A: The G0/G1 distribution was 56.20.

Q: What about the G2/M distribution ([2]; DBG 12 nM, sample 2) of the same molecule?
A: The G2/M distribution was 35.10.

Q: And the S distribution ([2]; DBG 12 nM, sample 2)?
A: The S distribution was 8.70.

Q: And the G0/G1 distribution ([2]; DBG 12 nM, sample 3)?
A: Its G0/G1 distribution is 57.10.

Q: What about the G2/M distribution ([2]; DBG 12 nM, sample 3) of the same molecule?
A: The G2/M distribution was 34.30.

Q: And the S distribution ([2]; DBG 12 nM, sample 3)?
A: The S distribution was 8.60.

Q: And the “increase in proportion of cells at G1 phase” value ([2]; concentration not given)?
A: The value was 2.36%.

Q: And the “cell viability (relative to untreated = 100.00)” value ([3]; DBG 12 nM, mean of 3)?
A: Its value is 38.91.

Q: What about the “cell viability (relative to untreated = 100.00)” value ([3]; DBG 12 nM, replicate 1) of the same molecule?
A: The value was 39.88.

Q: And the “cell viability (relative to untreated = 100.00)” value ([3]; DBG 12 nM, replicate 2)?
A: Its value is 38.76.

Q: And the “cell viability (relative to untreated = 100.00)” value ([3]; DBG 12 nM, replicate 3)?
A: The value was 38.08.

Q: What about the “cell viability (relative to untreated = 100.00)” value ([3]; NAC 4 mM + DBG 12 nM, mean of 3) of the same molecule?
A: Its value is 99.25.

Q: And the “cell viability (relative to untreated = 100.00)” value ([3]; NAC 4 mM + DBG 12 nM, replicate 1)?
A: The value was 100.78.

Q: What about the “cell viability (relative to untreated = 100.00)” value ([3]; NAC 4 mM + DBG 12 nM, replicate 2) of the same molecule?
A: Its value is 98.32.

Q: And the “cell viability (relative to untreated = 100.00)” value ([3]; NAC 4 mM + DBG 12 nM, replicate 3)?
A: Its value is 98.66.

Q: What about the “anticancer activity of DBG after NAC pretreatment” value ([3]; NAC 4 mM, 3 h, DBG 48 h) of the same molecule?
A: Its value is “decreased”.

Q: And the “cytotoxicity after NAC pretreatment” value ([3]; NAC 4 mM, DBG 12 nM)?
A: The value was “a little, if any, cytotoxicity only at 12 nM”.

Q: And the caspase3 protein/actin ([4]; HCC827, DBG 12 nM, control 0.39)?
A: Its caspase3 protein/actin is 0.07.

Q: What about the “caspase3 protein Ratio” value ([4]; HCC827, DBG 12 nM) of the same molecule?
A: The value was 0.18.

Q: What about the caspase3 protein/actin ([4]; HCC827, NAC 4 mM + DBG 12 nM, control 0.39) of the same molecule?
A: Its caspase3 protein/actin is 0.60.

Q: And the “caspase3 protein Ratio” value ([4]; HCC827, NAC 4 mM + DBG 12 nM)?
A: The value was 1.53.

Q: And the caspase3 protein/actin ([4]; HCC827GR, DBG 12 nM, control 0.59)?
A: The caspase3 protein/actin was 0.24.

Q: What about the “caspase3 protein Ratio” value ([4]; HCC827GR, DBG 12 nM) of the same molecule?
A: The value was 0.41.

Q: And the caspase3 protein/actin ([4]; HCC827GR, NAC 4 mM + DBG 12 nM, control 0.59)?
A: The caspase3 protein/actin was 0.45.

Q: What about the “caspase3 protein Ratio” value ([4]; HCC827GR, NAC 4 mM + DBG 12 nM) of the same molecule?
A: Its value is 0.77.
